Measured values from the supplement of paper PMC12463676, “Small-molecule dissolution of stress granules by redox modulation benefits ALS models” (Nature Chemical Biology, 2025).

How the values were obtained:
[1] = compound: O=[As]([O-])(O)O.[K+] [potassium arsenate]; experiment: thermal stability z-score vs DMSO; higher = more thermally stabilized by treatment; details: HeLa; arsenate concentration 1 mM
Method: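 Cellular thermal proteome profiling in HeLa cells treated with 1 mM arsenate for 1 h (DMSO pretreatment), heated to ten temperatures (37-66.3 °C). Soluble protein was quantified by TMT mass spectrometry relative to DMSO controls; the thermal stability score was transformed to a z-score; mean of n = 3 experiments.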

[2] = compound: NC(=O)CCCCC1CCSS1 [lipoamide]; experiment: as above; details: HeLa, lipoamide concentration 100 µM
Method: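 Cellular thermal proteome profiling in HeLa cells. Cells were treated with 100 µM lipoamide for 1 h, with or without 1 mM arsenate for a further 1 h, then heated to ten temperatures (37-66.3 °C), and soluble protein was quantified by TMT mass spectrometry relative to 0.1% DMSO controls. The thermal stability score (sum of log2 fold changes minus the abundance score) was transformed to a z-score; mean of n = 3 experiments.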

[3] = arsenate co-treatment: 1 mM arsenate 1 h
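Further: each temperature applied for 3 min, abundance score taken as mean log2 fold change at the two lowest temperatures, z-score obtained by mean subtraction and division by SD.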

Sequence of UniProt O95573 (O95573 whole entry): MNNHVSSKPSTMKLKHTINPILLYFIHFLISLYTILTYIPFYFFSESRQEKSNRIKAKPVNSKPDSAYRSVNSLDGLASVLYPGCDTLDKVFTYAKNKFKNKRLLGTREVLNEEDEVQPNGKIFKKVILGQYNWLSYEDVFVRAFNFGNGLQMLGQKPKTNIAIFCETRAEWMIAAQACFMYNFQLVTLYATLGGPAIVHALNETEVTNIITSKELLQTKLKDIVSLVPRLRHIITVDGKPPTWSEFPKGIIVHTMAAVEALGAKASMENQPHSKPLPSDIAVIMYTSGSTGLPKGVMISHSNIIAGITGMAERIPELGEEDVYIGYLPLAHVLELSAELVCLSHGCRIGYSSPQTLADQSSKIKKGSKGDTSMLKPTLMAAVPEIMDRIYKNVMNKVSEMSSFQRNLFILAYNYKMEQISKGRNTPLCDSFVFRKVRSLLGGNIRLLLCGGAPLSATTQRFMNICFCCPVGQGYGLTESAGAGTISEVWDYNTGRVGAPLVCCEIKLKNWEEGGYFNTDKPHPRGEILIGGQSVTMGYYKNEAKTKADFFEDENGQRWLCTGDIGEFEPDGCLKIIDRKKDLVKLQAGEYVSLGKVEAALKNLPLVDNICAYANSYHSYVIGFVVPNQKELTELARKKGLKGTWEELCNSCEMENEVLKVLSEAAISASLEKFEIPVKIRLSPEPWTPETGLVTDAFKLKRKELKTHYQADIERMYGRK
Sequence of UniProt Q13443 (Q13443 whole entry): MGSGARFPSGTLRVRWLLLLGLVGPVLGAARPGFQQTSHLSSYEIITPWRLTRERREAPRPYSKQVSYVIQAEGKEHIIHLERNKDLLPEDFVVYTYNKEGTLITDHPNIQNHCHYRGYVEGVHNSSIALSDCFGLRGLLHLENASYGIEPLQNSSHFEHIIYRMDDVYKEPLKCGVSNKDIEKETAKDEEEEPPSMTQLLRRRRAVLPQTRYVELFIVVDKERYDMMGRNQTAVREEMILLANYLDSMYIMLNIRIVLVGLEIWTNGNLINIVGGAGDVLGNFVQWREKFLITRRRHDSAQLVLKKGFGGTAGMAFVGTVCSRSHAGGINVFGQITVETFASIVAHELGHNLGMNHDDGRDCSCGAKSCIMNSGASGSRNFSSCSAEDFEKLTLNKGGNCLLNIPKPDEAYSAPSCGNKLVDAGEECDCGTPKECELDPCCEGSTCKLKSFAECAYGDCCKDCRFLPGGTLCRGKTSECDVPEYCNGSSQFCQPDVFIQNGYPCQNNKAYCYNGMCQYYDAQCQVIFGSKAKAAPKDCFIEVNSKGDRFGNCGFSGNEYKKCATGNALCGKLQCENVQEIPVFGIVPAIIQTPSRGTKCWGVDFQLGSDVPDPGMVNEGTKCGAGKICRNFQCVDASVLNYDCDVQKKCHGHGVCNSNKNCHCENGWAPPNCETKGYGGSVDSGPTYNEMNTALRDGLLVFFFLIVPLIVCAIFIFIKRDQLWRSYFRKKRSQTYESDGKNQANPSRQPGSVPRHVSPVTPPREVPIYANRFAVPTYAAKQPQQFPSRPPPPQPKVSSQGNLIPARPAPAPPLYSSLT
Sequence of UniProt Q9NR19 (Q9NR19 whole entry): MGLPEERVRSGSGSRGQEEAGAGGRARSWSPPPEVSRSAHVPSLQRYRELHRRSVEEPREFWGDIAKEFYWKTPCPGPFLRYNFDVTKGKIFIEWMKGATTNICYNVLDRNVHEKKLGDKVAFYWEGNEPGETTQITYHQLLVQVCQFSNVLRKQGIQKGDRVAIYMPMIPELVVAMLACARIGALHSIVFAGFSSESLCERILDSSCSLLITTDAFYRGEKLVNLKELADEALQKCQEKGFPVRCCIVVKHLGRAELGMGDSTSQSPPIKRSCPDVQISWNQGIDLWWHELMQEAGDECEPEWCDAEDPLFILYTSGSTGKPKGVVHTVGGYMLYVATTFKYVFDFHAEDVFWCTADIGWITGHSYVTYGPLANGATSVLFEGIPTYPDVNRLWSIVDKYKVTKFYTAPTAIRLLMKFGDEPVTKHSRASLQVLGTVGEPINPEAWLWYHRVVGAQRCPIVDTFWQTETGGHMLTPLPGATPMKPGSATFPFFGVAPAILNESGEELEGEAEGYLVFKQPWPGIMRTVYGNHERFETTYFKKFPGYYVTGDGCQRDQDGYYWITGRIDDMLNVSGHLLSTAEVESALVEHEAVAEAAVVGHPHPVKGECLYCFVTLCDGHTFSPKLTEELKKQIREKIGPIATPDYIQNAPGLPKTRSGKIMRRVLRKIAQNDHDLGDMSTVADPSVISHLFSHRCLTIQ
Sequence of UniProt Q96CM8 (Q96CM8 whole entry): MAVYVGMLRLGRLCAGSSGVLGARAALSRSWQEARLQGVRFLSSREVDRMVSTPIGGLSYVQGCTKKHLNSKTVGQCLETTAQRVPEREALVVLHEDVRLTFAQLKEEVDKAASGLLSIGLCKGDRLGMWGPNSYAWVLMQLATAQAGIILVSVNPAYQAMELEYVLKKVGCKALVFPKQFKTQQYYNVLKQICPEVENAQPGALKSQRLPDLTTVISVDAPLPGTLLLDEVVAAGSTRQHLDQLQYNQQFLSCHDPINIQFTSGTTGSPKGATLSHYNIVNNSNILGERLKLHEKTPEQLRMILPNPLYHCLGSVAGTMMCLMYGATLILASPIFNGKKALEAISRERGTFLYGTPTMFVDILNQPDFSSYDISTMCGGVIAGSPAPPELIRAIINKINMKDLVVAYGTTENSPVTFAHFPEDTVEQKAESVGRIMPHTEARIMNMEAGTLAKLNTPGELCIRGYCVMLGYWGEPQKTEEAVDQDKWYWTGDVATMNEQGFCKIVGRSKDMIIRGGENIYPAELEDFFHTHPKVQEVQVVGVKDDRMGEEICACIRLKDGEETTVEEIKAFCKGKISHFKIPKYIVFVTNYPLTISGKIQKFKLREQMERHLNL
Sequence of UniProt P07311 (P07311 whole entry): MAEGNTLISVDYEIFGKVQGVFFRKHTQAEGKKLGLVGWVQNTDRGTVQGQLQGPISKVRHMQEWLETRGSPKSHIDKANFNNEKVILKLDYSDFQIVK
Sequence of UniProt P33121 (P33121 whole entry): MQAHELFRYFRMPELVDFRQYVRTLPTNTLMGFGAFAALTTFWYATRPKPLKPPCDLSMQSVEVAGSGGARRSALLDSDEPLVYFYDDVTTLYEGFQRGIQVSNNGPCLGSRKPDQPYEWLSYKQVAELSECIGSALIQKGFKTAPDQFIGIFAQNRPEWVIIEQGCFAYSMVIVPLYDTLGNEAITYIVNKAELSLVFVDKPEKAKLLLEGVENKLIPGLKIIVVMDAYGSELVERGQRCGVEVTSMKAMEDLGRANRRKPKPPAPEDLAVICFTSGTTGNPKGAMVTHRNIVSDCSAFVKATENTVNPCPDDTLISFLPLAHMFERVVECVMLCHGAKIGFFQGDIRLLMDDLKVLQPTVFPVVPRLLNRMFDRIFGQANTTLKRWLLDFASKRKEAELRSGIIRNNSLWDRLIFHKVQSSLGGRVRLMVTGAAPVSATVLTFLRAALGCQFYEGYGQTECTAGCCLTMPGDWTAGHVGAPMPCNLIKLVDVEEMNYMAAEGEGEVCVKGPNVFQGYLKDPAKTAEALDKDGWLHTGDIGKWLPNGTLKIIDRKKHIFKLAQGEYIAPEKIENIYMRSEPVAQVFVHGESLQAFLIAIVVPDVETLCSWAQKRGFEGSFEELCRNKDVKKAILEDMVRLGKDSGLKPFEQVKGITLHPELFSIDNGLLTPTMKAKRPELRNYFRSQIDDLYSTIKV
Sequence of UniProt Q4G176 (Q4G176 whole entry): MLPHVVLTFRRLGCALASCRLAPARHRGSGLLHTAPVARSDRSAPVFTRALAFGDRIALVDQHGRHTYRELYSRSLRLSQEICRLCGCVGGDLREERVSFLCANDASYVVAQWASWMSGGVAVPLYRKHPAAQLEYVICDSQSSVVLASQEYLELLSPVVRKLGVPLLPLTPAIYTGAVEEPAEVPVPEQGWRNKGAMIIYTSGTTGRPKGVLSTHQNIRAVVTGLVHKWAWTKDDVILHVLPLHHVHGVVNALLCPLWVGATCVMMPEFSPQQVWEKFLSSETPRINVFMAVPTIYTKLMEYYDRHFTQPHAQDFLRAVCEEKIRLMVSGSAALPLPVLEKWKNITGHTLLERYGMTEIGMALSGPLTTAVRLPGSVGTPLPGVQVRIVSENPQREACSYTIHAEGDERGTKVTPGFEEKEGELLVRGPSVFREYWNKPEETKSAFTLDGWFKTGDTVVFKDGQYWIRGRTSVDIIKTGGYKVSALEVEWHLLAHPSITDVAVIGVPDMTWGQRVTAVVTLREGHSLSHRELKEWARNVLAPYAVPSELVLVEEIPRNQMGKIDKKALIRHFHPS
Sequence of UniProt Q96D53 (Q96D53 whole entry): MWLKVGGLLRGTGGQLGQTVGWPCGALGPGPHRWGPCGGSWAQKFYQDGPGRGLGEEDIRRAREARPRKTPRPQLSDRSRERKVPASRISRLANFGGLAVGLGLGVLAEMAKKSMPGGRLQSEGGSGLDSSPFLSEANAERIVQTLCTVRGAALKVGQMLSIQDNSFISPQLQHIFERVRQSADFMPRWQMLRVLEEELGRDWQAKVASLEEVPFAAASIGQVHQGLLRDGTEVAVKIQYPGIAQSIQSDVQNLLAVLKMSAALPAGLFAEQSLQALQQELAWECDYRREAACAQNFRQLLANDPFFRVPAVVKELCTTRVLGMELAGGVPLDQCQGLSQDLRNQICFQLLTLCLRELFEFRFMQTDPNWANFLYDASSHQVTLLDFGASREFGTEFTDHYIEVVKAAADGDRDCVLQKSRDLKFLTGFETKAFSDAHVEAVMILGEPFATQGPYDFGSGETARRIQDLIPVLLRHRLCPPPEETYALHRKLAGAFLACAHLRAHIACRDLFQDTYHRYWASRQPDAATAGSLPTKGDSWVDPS
Sequence of UniProt Q7Z6V5 (Q7Z6V5 whole entry): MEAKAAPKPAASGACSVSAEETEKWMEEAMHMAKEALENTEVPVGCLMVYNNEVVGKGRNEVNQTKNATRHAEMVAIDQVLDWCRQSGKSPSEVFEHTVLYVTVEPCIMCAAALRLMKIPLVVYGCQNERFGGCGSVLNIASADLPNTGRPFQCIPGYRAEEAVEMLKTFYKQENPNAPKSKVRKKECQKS

Target ACP2 (UniProt P11117) has a thermal stability z-score [1] of 0.375, a thermal stability z-score [2, 3] of -0.226 and a thermal stability z-score ([2]; arsenate co-treatment: none) of -0.57.

For ACSF2 (UniProt Q96CM8), the thermal stability z-score [1] was -0.301, the thermal stability z-score [2, 3] was -0.634 and the thermal stability z-score ([2]; arsenate co-treatment: none) was -0.524.

With ACSF3 (UniProt Q4G176) the thermal stability z-score [1] was 0.298, the thermal stability z-score [2, 3] was -0.68 and the thermal stability z-score ([2]; arsenate co-treatment: none) was 0.39.

ACSL1 (UniProt P33121) showed a thermal stability z-score [1] of 0.682, a thermal stability z-score [2, 3] of 0.922 and a thermal stability z-score ([2]; arsenate co-treatment: none) of 0.82.

With ACSL3 (UniProt O95573) the thermal stability z-score [1] was -0.39, the thermal stability z-score [2, 3] was -0.87 and the thermal stability z-score ([2]; arsenate co-treatment: none) was -0.498.

Work on ACSL4 (UniProt O60488) yielded a thermal stability z-score [1] of -1.66, a thermal stability z-score [2, 3] of 0.208 and a thermal stability z-score ([2]; arsenate co-treatment: none) of 0.296.

In the case of ACSS2 (UniProt Q9NR19), the thermal stability z-score [1] is reported as -0.517, the thermal stability z-score [2, 3] is reported as 0.198 and the thermal stability z-score ([2]; arsenate co-treatment: none) is reported as 0.512.

With ACTG1 (UniProt P63261) the thermal stability z-score [1] was -0.572, the thermal stability z-score [2, 3] was -0.494 and the thermal stability z-score ([2]; arsenate co-treatment: none) was -0.484.

Target ACTL6A (UniProt O96019) has a thermal stability z-score [1] of -0.336, a thermal stability z-score [2, 3] of 2.1 and a thermal stability z-score ([2]; arsenate co-treatment: none) of 0.96.

Work on ACTN1 (UniProt P12814) yielded a thermal stability z-score [1] of 0.163, a thermal stability z-score [2, 3] of 0.249 and a thermal stability z-score ([2]; arsenate co-treatment: none) of 0.339.

ACTN4 (UniProt O43707) was tested, and the thermal stability z-score [1] was 0.498, the thermal stability z-score [2, 3] was 0.262 and the thermal stability z-score ([2]; arsenate co-treatment: none) was 0.364.

With ACTR1A (UniProt P61163) the thermal stability z-score [1] was -0.614, the thermal stability z-score [2, 3] was 0.0148 and the thermal stability z-score ([2]; arsenate co-treatment: none) was 0.0511.

With ACTR1B (UniProt P42025) the thermal stability z-score [1] was 0.0363, the thermal stability z-score [2, 3] was 1.04 and the thermal stability z-score ([2]; arsenate co-treatment: none) was 0.945.

Target ACTR2 (UniProt P61160) has a thermal stability z-score [1] of -0.487, a thermal stability z-score [2, 3] of -0.116 and a thermal stability z-score ([2]; arsenate co-treatment: none) of -0.175.

Work on ACTR3 (UniProt P61158) yielded a thermal stability z-score [1] of -0.483, a thermal stability z-score [2, 3] of -0.149 and a thermal stability z-score ([2]; arsenate co-treatment: none) of 0.128.

ACTR5 (UniProt Q9H9F9) gave a thermal stability z-score [1] of -0.0841, a thermal stability z-score [2, 3] of -0.0353 and a thermal stability z-score ([2]; arsenate co-treatment: none) of -0.0633.

ACTR6 (UniProt Q9GZN1) was tested, and the thermal stability z-score [1] was -0.13, the thermal stability z-score [2, 3] was 0.151 and the thermal stability z-score ([2]; arsenate co-treatment: none) was -0.182.

Work on ACTR8 (UniProt Q9H981) yielded a thermal stability z-score [1] of -0.347, a thermal stability z-score [2, 3] of -0.154 and a thermal stability z-score ([2]; arsenate co-treatment: none) of -0.0898.

Target ACTR10 (UniProt Q9NZ32) has a thermal stability z-score [1] of -0.312, a thermal stability z-score [2, 3] of -0.106 and a thermal stability z-score ([2]; arsenate co-treatment: none) of 0.0788.

ACY1 (UniProt Q03154) was tested, and the thermal stability z-score [1] was 0.873, the thermal stability z-score [2, 3] was 0.304 and the thermal stability z-score ([2]; arsenate co-treatment: none) was 0.38.

In the case of ACYP1 (UniProt P07311), the thermal stability z-score [1] is reported as -0.451, the thermal stability z-score [2, 3] is reported as -0.11 and the thermal stability z-score ([2]; arsenate co-treatment: none) is reported as -0.304.

Target ACYP2 (UniProt P14621) has a thermal stability z-score [1] of -0.0225, a thermal stability z-score [2, 3] of 0.611 and a thermal stability z-score ([2]; arsenate co-treatment: none) of 0.261.

Target ADA (UniProt P00813) has a thermal stability z-score [1] of -0.000857, a thermal stability z-score [2, 3] of 0.792 and a thermal stability z-score ([2]; arsenate co-treatment: none) of 0.403.

Target ADAM9 (UniProt Q13443) has a thermal stability z-score [1] of 0.397, a thermal stability z-score [2, 3] of -0.535 and a thermal stability z-score ([2]; arsenate co-treatment: none) of -0.428.

For ADAM10 (UniProt O14672), the thermal stability z-score [1] was -0.0434, the thermal stability z-score [2, 3] was -1.72 and the thermal stability z-score ([2]; arsenate co-treatment: none) was -1.52.

In the case of ADAM15 (UniProt Q13444), the thermal stability z-score [1] is reported as -0.1, the thermal stability z-score [2, 3] is reported as -1.37 and the thermal stability z-score ([2]; arsenate co-treatment: none) is reported as -1.49.

Work on ADAM17 (UniProt P78536) yielded a thermal stability z-score [1] of -0.966, a thermal stability z-score [2, 3] of -1.11 and a thermal stability z-score ([2]; arsenate co-treatment: none) of -0.994.

ADAR (UniProt P55265) gave a thermal stability z-score [1] of -1.48, a thermal stability z-score [2, 3] of 0.419 and a thermal stability z-score ([2]; arsenate co-treatment: none) of 0.448.

ADAT2 (UniProt Q7Z6V5) was tested, and the thermal stability z-score [1] was -0.708, the thermal stability z-score [2, 3] was -0.663 and the thermal stability z-score ([2]; arsenate co-treatment: none) was -0.376.

ADAT3 (UniProt Q96EY9) gave a thermal stability z-score [1] of -0.301, a thermal stability z-score [2, 3] of -0.293 and a thermal stability z-score ([2]; arsenate co-treatment: none) of 0.276.

ADCK1 (UniProt Q86TW2) gave a thermal stability z-score [1] of -0.00585, a thermal stability z-score [2, 3] of 0.36 and a thermal stability z-score ([2]; arsenate co-treatment: none) of -0.122.

ADCK3 (UniProt Q8NI60) showed a thermal stability z-score [1] of 0.0575, a thermal stability z-score [2, 3] of -0.0263 and a thermal stability z-score ([2]; arsenate co-treatment: none) of 0.19.

With ADCK4 (UniProt Q96D53) the thermal stability z-score [1] was -0.165, the thermal stability z-score [2, 3] was -2.27 and the thermal stability z-score ([2]; arsenate co-treatment: none) was -0.801.

For ADCY9 (UniProt O60503), the thermal stability z-score [1] was 0.26, the thermal stability z-score [2, 3] was 0.368 and the thermal stability z-score ([2]; arsenate co-treatment: none) was 0.853.

For ADD1 (UniProt P35611), the thermal stability z-score [1] was -0.913, the thermal stability z-score [2, 3] was -0.281 and the thermal stability z-score ([2]; arsenate co-treatment: none) was -0.308.

ADD3 (UniProt Q9UEY8) showed a thermal stability z-score [1] of -0.362, a thermal stability z-score [2, 3] of -0.112 and a thermal stability z-score ([2]; arsenate co-treatment: none) of 0.162.
